Patent US11261209B2, “Enhanced coupling of stereodefined oxazaphospholidine phosphoramidite monomers to nucleoside or oligonucleotide” (Roche Innovation Center Copenhagen A/S, priority 2016, dated 2022)
“Also recorded” adds a separate entry of the source.

What was measured:
[1] = Solubility of oxazaphospholidine phosphoramidite monomers in solvent, visual examination; type: physicochemical; conditions: for Soluble after: 0 h MeCN + 2.5% pyridine / Soluble after: 0 h MeCN / Soluble after: 24 h MeCN + 2.5% pyridine / Soluble after: 24 h MeCN: 0.013 mmol amidite in 0.13 mL, room temperature; for Solubility after 24 hours in MeCN with addition of pyridine: MeCN with addition of pyridine (2.5%)
Description: To a 1.5 mL vial was added 0.013 mmol of amidite after which the solid material was dissolved in 0.13 mL of solvent. Hereafter, the vial was capped, vortexed, and finally left at room temperature for 24 hours. Then, the dissolved material was visually examined regarding the solubility (FIG. 1). If the solution appeared cloudy or otherwise non-homogenous the solubility was set to “no”. If the solution appeared completely homogenous the solubility was set to “yes” (examination repeated after 24 hours).
Solubility of the following monomers was determined as per example 7.

[2] = Stability of amidite in solution by HPLC-MS (UV 254 nm, normalised to 0 hours); type: physicochemical
Description: Stability Determination Method: To complete the analysis the stability of the amidite was investigated using an Agilent 1100 series HPLC-MS with a gradient from 80% A (1% NH4OH in H2O) to 100% B (20% A in MeCN) and a Waters Xterra MS C18 2.1×100 mm column. The mass and UV peak of the mother compound was identified at 0 hours and at 24 hours. Hereafter, the relative stability compared to other by-products was reported by integrating the UV chromatogram (254 nm) and normalizing the area to the chromatogram recorded at 0 hours (FIG. 2).
To a 1.5 mL vial was added 0.013 mmol of amidite after which the solid material was dissolved in 0.13 mL of solvent (with and without Et3N, approximately 5-10 eq). Hereafter, the vial was capped, vortexed, and finally left at room temperature for 24 hours. To investigate the stability of the amidite an Agilent 1100 series HPLC-MS with a gradient from 80% A (1% NH4OH in H2O) to 100% B (20% A in MeCN) and a Waters Xterra MS C18 2.1×100 mm column was used. The mass and UV peak of the mother compound was identified at 0 hours and at 24 hours. Hereafter, the relative stability compared to other by-products was reported. This was again repeated after 48 hours.

Structure (SMILES) | Soluble after: 0 h MeCN + 2.5% pyridine [1] | Soluble after: 0 h MeCN ([1]; MeCN) | Soluble after: 24 h MeCN + 2.5% pyridine [1] | Soluble after: 24 h MeCN ([1]; MeCN) | other results
COc1ccc(C(OC[C@H]2O[C@@H](n3cnc4c(NC(=O)c5ccccc5)ncnc43)C[C@@H]2O[P@]2O[C@@H](c3ccccc3)[C@H]3CCCN32)(c2ccccc2)c2ccc(OC)cc2)cc1 [D-DNA A] | Yes | Yes | Yes | No | Solubility after 24 hours in MeCN with addition of pyridine [1]: solubility of the monomer is preserved; Solubility after 24 hours in MeCN ([1]; MeCN): not soluble
COc1ccc(C(OC[C@H]2O[C@@H](n3ccc(NC(C)=O)nc3=O)C[C@@H]2O[P@]2O[C@@H](c3ccccc3)[C@H]3CCCN32)(c2ccccc2)c2ccc(OC)cc2)cc1 [D-DNA C] | Yes | Yes | Yes | No | –
COc1ccc(C(OC[C@H]2O[C@@H](n3cnc4c(=O)[nH]c(/N=C/N(C)C)nc43)C[C@@H]2O[P@]2O[C@@H](c3ccccc3)[C@H]3CCCN32)(c2ccccc2)c2ccc(OC)cc2)cc1 [D-DNA G] | Yes | Yes | Yes | No | –
COc1ccc(C(OC[C@H]2O[C@@H](n3cc(C)c(=O)[nH]c3=O)C[C@@H]2O[P@]2O[C@@H](c3ccccc3)[C@H]3CCCN32)(c2ccccc2)c2ccc(OC)cc2)cc1 [D-DNA T] | Yes | Yes | Yes | No | –
COc1ccc(C(OCC23COC(C(n4cnc5c(NC(=O)c6ccccc6)ncnc54)O2)C3OP2OC(c3ccccc3)C3CCCN32)(c2ccccc2)c2ccc(OC)cc2)cc1 [D-LNA A] | Yes | Yes | Yes | No | Solubility after 24 hours in MeCN with addition of pyridine [1]: solubility of the monomer is preserved; Solubility after 24 hours in MeCN ([1]; MeCN): not soluble
COc1ccc(C(OCC23COC(C(n4cnc5c(=O)[nH]c(N=CN(C)C)nc54)O2)C3OP2OC(c3ccccc3)C3CCCN32)(c2ccccc2)c2ccc(OC)cc2)cc1 [D-LNA G] | Yes | Yes | Yes | Yes | –
COc1ccc(C(OCC23COC(C(n4cc(C)c(=O)[nH]c4=O)O2)C3OP2OC(c3ccccc3)C3CCCN32)(c2ccccc2)c2ccc(OC)cc2)cc1 [D-LNA T] | Yes | Yes | Yes | Yes | –
COc1ccc(C(OC[C@H]2O[C@@H](n3cnc4c(NC(=O)c5ccccc5)ncnc43)C[C@@H]2O[P@@]2O[C@H](c3ccccc3)[C@@H]3CCCN32)(c2ccccc2)c2ccc(OC)cc2)cc1 [L-DNA A] | Yes | Yes | Yes | No | Solubility after 24 hours in MeCN with addition of pyridine [1]: solubility of the monomer is preserved; also recorded: kept in solution; Solubility after 24 hours in MeCN ([1]; MeCN): not soluble; also recorded: not sufficient to keep the monomer in solution
COc1ccc(C(OC[C@H]2O[C@@H](n3ccc(NC(C)=O)nc3=O)C[C@@H]2O[P@@]2O[C@H](c3ccccc3)[C@@H]3CCCN32)(c2ccccc2)c2ccc(OC)cc2)cc1 [L-DNA C] | Yes | Yes | Yes | No | –
COc1ccc(C(OC[C@H]2O[C@@H](n3cnc4c(=O)[nH]c(/N=C/N(C)C)nc43)C[C@@H]2O[P@@]2O[C@H](c3ccccc3)[C@@H]3CCCN32)(c2ccccc2)c2ccc(OC)cc2)cc1 [L-DNA G] | Yes | Yes | Yes | No | –
COc1ccc(C(OC[C@H]2O[C@@H](n3cc(C)c(=O)[nH]c3=O)C[C@@H]2O[P@@]2O[C@H](c3ccccc3)[C@@H]3CCCN32)(c2ccccc2)c2ccc(OC)cc2)cc1 [L-DNA T] | Yes | Yes | Yes | No | –
COc1ccc(C(OCC23COC(C(n4cnc5c(NC(=O)c6ccccc6)ncnc54)O2)C3OP2OC(c3ccccc3)C3CCCN32)(c2ccccc2)c2ccc(OC)cc2)cc1 [L-LNA A] | – | – | – | – | Stability in MeCN with Et3N after 24 hours ([2]; MeCN + Et3N approximately 5-10 eq, 24 hours): completely stable; Stability in MeCN with Et3N after 48 hours ([2]; MeCN + Et3N approximately 5-10 eq, 48 hours): majority of the L-LNA A is preserved; Stability in MeCN after 24 hours ([2]; MeCN only, 24 hours, room temperature): most of the L-LNA A was degraded; Stability in MeCN after 48 hours ([2]; MeCN only, 48 hours, room temperature): completely degraded
COc1ccc(C(OCC23COC(C(n4cnc5c(=O)[nH]c(N=CN(C)C)nc54)O2)C3OP2OC(c3ccccc3)C3CCCN32)(c2ccccc2)c2ccc(OC)cc2)cc1 [L-LNA G-DMF] | No | No | No | No | Solubility in most solvents ([1]; MeCN, MeCN:DCE, MeCN:Tol, MeCN:acetone, Dioxane, and THF): unsoluble; Solubility in remaining solvents ([1]; MeCN:DCM, DMF, DMSO, NMP, DCM, DCE, and Toluene): soluble; Solubility in acetonitrile solvents ([1]; acetonitrile solvents): poorly soluble; Amidite left after 24 hours ([2]; DCM (best solvent), 24 hours, room temperature): 10%; Stability in the solvents where the monomer is soluble ([2]; MeCN:DCM, DMF, DMSO, NMP, DCM, DCE, and Toluene, 24 hours): tremendous instability
COc1ccc(C(OC[C@@]23CO[C@@H]([C@H](n4cnc5c(=O)[nH]c(NC(=O)C(C)C)nc54)O2)[C@@H]3O[P@]2O[C@H](c3ccccc3)[C@@H]3CCCN32)(c2ccccc2)c2ccc(OC)cc2)cc1 [L-LNA-G-iBu] | Yes | Yes | Yes | – | Solubility in all solvents investigated ([1]; all solvents investigated (12 different)): soluble
